Measured values taken from patent US20050282818A1, “Ubiquitin ligase inhibitors” (Rigel Pharmaceuticals, Inc., priority 2004, published 2005).
pIC50: −log10 of the molar value.

What was measured:
TRAF6/Uev1A/Ubc13 = target: T1, TRAF6/Uev1A/Ubc13 (Homo sapiens, UniProt Q9Y4K3); assay: TRAF6/Uev1A/Ubc13 plate-based ubiquitin ligase assay; type: biochemical
T1 sequence (Q9Y4K3 1-522): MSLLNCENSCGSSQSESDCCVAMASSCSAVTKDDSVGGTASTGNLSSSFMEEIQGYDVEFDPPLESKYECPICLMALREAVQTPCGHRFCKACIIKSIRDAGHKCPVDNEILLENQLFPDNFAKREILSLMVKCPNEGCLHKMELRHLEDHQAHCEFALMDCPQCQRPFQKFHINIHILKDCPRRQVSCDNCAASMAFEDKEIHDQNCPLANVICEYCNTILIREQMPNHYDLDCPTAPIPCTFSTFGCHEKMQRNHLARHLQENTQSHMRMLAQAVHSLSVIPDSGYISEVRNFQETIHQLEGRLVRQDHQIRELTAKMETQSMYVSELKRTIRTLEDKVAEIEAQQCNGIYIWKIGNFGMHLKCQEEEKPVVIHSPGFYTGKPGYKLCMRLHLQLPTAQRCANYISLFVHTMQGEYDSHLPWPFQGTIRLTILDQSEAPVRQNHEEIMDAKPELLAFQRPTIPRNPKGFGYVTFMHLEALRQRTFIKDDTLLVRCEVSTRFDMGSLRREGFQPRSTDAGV
Summary of the method: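 Ligase activity was read as luminescence from anti-Flag/HRP detection of Flag-ubiquitin bound to casein-blocked Ni-plates alongside His-ubiquitin after a 1 h room-temperature reaction. Buffer: 62.5 mM Tris pH 7.5, 6.25 mM MgCl2, 1.0 mM DTT, 2 μM ATP; E1, Uev1a/Ubc13 and TRAF6 added last to start. IC50s derived across compound concentrations.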

ROC1/CUL1 = target: T2, ROC1/CUL1 (Homo sapiens, UniProt P62877+Q13616); assay: ROC1/CUL1 ubiquitin ligase assay (SCF assay); type: biochemical
T2 construct: made in house
Experimental: Inhibition of ubiquitin ligase activity of E1+E2+E3 was measured using the protocol as described in WO 01/75145 with E3 as the ROC1/CUL1, ROC1/CUL2, or ROC2/CUL5 complex.
The wells of nickel-substrate 96-well plates (Pierce Chemical) are blocked with 100 μl of 1 casein/phosphate buffered saline (PBS) for 1 hour at room temperature, then washed with 200 μl of PBST (0.1% Tween-20 in PBS) 3 times. To each well is added the following Flag-ubiquitin (see above) reaction solution: 62.5 mM Tris pH 7.5, 6.25 mm MgCl2, 0.75 mM DTT, 2.5 mM ATP, 2.5 mM NaF1, 2.5 nM Okadaic acid, 100 ng Flag-ubiquitin (made as described above).
The buffer solution is brought to a final volume of 80 μl with Milipore-filtered water, followed by the addition of 10 μl DMSO.
To the above solution is then added 10 μl of ubiquitination enzymes in 20 mM Tris buffer, pH 7.5, and 5% glycerol. E2-Ubch5c and E3-His ROC1/Cul1, ROC1/CUL2, and ROC2/CUL5 are made as described in WO 01/75145. E1 is obtained commercially (Affiniti Research Products, Exeter, U. K.). The following amounts of each enzyme are used for these assays: 5 ng/well of E1; […] E2; and 100 ng/well His-E3. Varying amounts of compounds according to the invention are added and the reaction allowed to proceed at room temperature for 1 hour.
Following the ubiquitination reaction, the wells are washed with 200 μl of PBST 3 times. For measurement of the enzyme-bound ubiquitin, 100 gel of Mouse anti-Flag (1:10,000) and anti-Mouse Ig-HRP (1:15, 000) in PBST are added to each well and allowed to incubate at room temperature for 1 hour. The wells are then washed with 200 μl of PBST 3 times, followed by the addition of 100 μl of luminol substrate (1/5 dilution). Luminescence for each well is then measured using a fluorimeter.
Table 2 below illustrates the inhibitory activity of the compounds of the invention determined by the TRAF6/Uev1A/Ubc13 assay as well as in the ICAM, APC and the ROC1/CUL1 Ubiquitin Ligase Assay (SCF Assay). The IC50 values were determined using a various concentrations of the compounds.

APC11/APC2 = APC11/APC2 (Homo sapiens, UniProt Q9NYG5+Q9UJX6); assay: APC-11/APC-2 ligase assay (APC auto ubiquitination); type: biochemical; details: APC assay
Summary of the method: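 His-tagged APC was captured on nickel plates with human E1 (5 ng/well), UbcH5c (20 ng/well), APC (100 ng/well) and Flag-ubiquitin (100 ng/well) in a Tris pH 7.6 reaction buffer containing 2.5 mM ATP, for 1 hour at room temperature. Read-out was anti-Flag/HRP chemiluminescence. IC50 was set against a DMSO control, typically from 6 or 8 concentrations.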

[1] = tested on: ICAM-1 expression in A549 cells; assay: ICAM assay (IL-1 induced ICAM-1/CD54 expression in A549 cells); type: cell-based, human; details: Homo sapiens, A549, ICAM assay
Summary of the method: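 A549 cells, 10,000/well, preincubated with compound 1 h at 37° C, then stimulated with IL-1 (4 μl of 25 ng/ml added) for 4 h. Surface ICAM-1 detected by anti-CD54 plus anti-mouse IgG staining for 1 h, luminescent read-out after PBS washes.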

T2 sequence (P62877 whole entry): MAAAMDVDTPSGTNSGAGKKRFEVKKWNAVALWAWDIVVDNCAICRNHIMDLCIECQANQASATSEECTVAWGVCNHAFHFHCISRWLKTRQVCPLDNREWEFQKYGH
T2 sequence (Q13616 whole entry): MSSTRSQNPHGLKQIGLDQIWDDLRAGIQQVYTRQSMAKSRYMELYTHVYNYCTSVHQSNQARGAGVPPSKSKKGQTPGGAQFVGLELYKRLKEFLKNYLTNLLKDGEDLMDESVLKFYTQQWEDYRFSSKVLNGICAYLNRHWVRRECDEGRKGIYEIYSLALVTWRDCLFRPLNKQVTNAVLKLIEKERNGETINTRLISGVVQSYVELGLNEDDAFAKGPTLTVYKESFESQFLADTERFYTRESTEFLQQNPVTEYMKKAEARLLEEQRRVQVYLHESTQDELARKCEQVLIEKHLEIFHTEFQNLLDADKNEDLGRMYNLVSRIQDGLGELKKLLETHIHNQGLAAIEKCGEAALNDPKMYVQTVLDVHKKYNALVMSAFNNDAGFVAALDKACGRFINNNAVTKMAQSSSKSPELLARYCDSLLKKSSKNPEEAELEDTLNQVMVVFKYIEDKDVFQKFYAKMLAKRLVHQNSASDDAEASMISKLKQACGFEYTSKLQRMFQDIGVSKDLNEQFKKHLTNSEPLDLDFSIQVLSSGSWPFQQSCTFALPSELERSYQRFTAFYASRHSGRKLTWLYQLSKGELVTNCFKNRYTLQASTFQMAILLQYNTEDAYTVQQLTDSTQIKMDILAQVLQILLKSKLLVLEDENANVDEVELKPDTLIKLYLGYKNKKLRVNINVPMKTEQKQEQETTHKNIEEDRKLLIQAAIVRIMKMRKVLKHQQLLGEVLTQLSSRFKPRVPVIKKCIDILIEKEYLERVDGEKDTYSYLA
Chain of APC11/APC2 (Q9NYG5 whole entry): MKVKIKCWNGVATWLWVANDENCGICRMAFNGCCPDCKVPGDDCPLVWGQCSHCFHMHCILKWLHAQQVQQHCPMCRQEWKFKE
Chain of APC11/APC2 (Q9UJX6 whole entry): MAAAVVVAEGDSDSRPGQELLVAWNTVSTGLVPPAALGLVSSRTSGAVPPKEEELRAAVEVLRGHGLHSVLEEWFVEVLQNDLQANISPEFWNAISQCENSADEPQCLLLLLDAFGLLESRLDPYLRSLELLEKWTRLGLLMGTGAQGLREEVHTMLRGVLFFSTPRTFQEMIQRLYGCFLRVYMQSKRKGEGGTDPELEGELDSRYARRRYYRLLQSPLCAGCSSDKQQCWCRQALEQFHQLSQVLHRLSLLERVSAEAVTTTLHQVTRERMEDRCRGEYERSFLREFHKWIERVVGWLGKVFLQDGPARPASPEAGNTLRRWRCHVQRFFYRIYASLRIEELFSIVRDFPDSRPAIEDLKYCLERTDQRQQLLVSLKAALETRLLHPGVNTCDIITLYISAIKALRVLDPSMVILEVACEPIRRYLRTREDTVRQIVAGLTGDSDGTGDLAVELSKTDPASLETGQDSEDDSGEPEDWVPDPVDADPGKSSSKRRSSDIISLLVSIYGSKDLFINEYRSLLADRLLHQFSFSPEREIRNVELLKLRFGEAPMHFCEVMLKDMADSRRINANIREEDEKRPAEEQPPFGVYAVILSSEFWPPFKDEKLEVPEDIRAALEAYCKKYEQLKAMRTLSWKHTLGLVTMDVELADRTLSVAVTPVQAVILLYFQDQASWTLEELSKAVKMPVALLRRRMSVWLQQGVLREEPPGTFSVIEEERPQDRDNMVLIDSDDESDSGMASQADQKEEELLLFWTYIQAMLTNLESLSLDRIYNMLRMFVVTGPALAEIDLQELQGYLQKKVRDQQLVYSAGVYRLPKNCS

pIC50 (TRAF6/Uev1A/Ubc13)	pIC50 (ROC1/CUL1)	pIC50 (APC11/APC2)	pIC50 [1]	SMILES
≤ 4.70	≤ 4.70			CC(=O)OCCCNc1cc(Sc2nnc(C)s2)c2nonc2c1[N+](=O)[O-] [compound 133, 3-({7-[(5-methyl-1,3,4-thiadiazol-2-yl)thio]-4-nitro-2,1,3-benzoxadiazol-5-yl}amino)propyl acetate]
≤ 4.70	≤ 4.70			CCCSc1cc(NCCCOC(C)=O)c([N+](=O)[O-])c2nonc12 [compound 134, 4-{[4-nitro-7-(propylthio)-2,1,3-benzoxadiazol-5-yl]amino}propyl acetate]
≤ 4.70	≤ 4.70			CC(=O)OCCCNc1cc(SC2CCCCC2)c2nonc2c1[N+](=O)[O-] [compound 135, 3-{[7-(cyclohexylthio)-4-nitro-2,1,3-benzoxadiazol-5-yl]amino}propyl acetate]
≤ 4.70	≤ 4.70			CC(=O)OCCCNc1cc(SCc2ccco2)c2nonc2c1[N+](=O)[O-] [compound 136, 3-({7-[(2-furylmethyl)thio]-4-nitro-2,1,3-benzoxadiazol-5-yl}amino)propyl acetate]
≤ 4.70		≤ 4.70	≤ 4.70	Cc1cc(C)cc(-c2cc3nsnc3cc2F)c1 [compound 461, 5-(3,5-dimethylphenyl)-6-fluoro-2,1,3-benzthiadiazole]
≤ 4.70		≤ 4.70	≤ 4.70	COc1ccc(-c2cc3nsnc3cc2F)cc1 [compound 462, 5-(4-methoxyphenyl)-6-fluoro-2,1,3-benzthiadiazole]
≤ 4.70		≤ 4.70	≤ 4.70	COc1ccc(-c2cc3nsnc3cc2F)cc1OC [compound 463, 5-(3,4-dimethoxyphenyl)-6-fluoro-2,1,3-benzthiadiazole]
4.70 to 6.00		4.70 to 6.00	4.70 to 6.00	O=[N+]([O-])c1ccc(-c2ccc(Oc3ccccc3)cc2)c2nonc12 [compound 464, 4-nitro-7-(4-phenoxyphenyl)-2,1,3-benzoxadiazole]
≤ 4.70		≤ 4.70	4.70 to 6.00	COc1ccc(-c2ccc([N+](=O)[O-])c3nonc23)cc1OC [compound 465, 4-(3,4-dimethoxyphenyl)-7-nitro-2,1,3-benzoxadiazole]
4.70 to 6.00		≤ 4.70	4.70 to 6.00	COc1ccc(-c2ccc([N+](=O)[O-])c3nonc23)cc1 [compound 466, 4-(4-methoxyphenyl)-7-nitro-2,1,3-benzoxadiazole]
4.70 to 6.00		4.70 to 6.00	4.70 to 6.00	O=[N+]([O-])c1ccc(-c2ccc3c(c2)OCO3)c2nonc12 [compound 467, 4-(benzodioxol-5-yl)-7-nitro-2,1,3-benzoxadiazole]
≤ 4.70		4.70 to 6.00	4.70 to 6.00	Cc1ccc(-c2ccc([N+](=O)[O-])c3nonc23)cc1 [compound 468, 4-(4-methylphenyl)-7-nitro-2,1,3-benzoxadiazole]
≤ 4.70		4.70 to 6.00	4.70 to 6.00	O=[N+]([O-])c1ccc(-c2cccc3ccccc23)c2nonc12 [compound 469, 4-(naphthalen-1-yl)-7-nitro-2,1,3-benzoxadiazole]
≤ 4.70		4.70 to 6.00	4.70 to 6.00	Cc1cccc(-c2ccc([N+](=O)[O-])c3nonc23)c1C [compound 470, 4-(2,3-dimethylphenyl)-7-nitro-2,1,3-benzoxadiazole]
≤ 4.70		4.70 to 6.00	4.70 to 6.00	Cc1ccc(C)c(-c2ccc([N+](=O)[O-])c3nonc23)c1 [compound 471, 4-(2,5-dimethylphenyl)-7-nitro-2,1,3-benzoxadiazole]
4.70 to 6.00		4.70 to 6.00	4.70 to 6.00	Cc1ccc(-c2ccc([N+](=O)[O-])c3nonc23)cc1C [compound 472, 4-(3,4-dimethylphenyl)-7-nitro-2,1,3-benzoxadiazole]
≤ 4.70		≤ 4.70	≤ 4.70	Cc1cccc(-c2cc(C(F)(F)F)cc3nonc23)c1C [compound 473, 4-(2,3-dimethylphenyl)-6-(trifluoromethyl)-2,1,3-benzoxadiazole]
≤ 4.70		≤ 4.70	≤ 4.70	FC(F)(F)c1cc(-c2ccccc2)c2nonc2c1 [compound 474, 4-phenyl-6-(trifluoromethyl)-2,1,3-benzoxadiazole]
≤ 4.70		≤ 4.70	≤ 4.70	FC(F)(F)c1cc(-c2ccc3c(c2)OCO3)c2nonc2c1 [compound 475, 4-(benzodioxol-5-yl)-6-(trifluoromethyl)-2,1,3-benzoxadiazole]
≤ 4.70		≤ 4.70	≤ 4.70	Cc1ccc(-c2cc([N+](=O)[O-])cc3nonc23)cc1 [compound 476, 6-nitro-4-p-tolyl-2,1,3-benzoxadiazole]
≤ 4.70		4.70 to 6.00	4.70 to 6.00	O=[N+]([O-])c1cc(-c2ccc(C(F)(F)F)cc2C(F)(F)F)c2nonc2c1 [compound 477, 4-(2,4-bis[trifluoromethyl]phenyl)-6-nitro-2,1,3-benzoxadiazole]
≤ 4.70		4.70 to 6.00	4.70 to 6.00	Cc1cccc(-c2cc([N+](=O)[O-])cc3nonc23)c1 [compound 478, 6-nitro-4-m-tolyl-2,1,3-benzoxadiazole]
≤ 4.70		≤ 4.70	≤ 4.70	O=[N+]([O-])c1cc(-c2cc(F)cc(F)c2)c2nonc2c1 [compound 479, 4-(3,5-difluorophenyl)-6-nitro-2,1,3-benzoxadiazole]
≤ 4.70		4.70 to 6.00	4.70 to 6.00	O=[N+]([O-])c1cc(-c2cccc(C(F)(F)F)c2)c2nonc2c1 [compound 480, 4-(3-[trifluoromethyl]phenyl)-6-nitro-2,1,3-benzoxadiazole]
4.70 to 6.00		4.70 to 6.00	4.70 to 6.00	CC(C)(C)c1ccc(-c2cc([N+](=O)[O-])cc3nonc23)cc1 [compound 481, 4-(4-t-butylphenyl)-6-nitro-2,1,3-benzoxadiazole]
≤ 4.70		≤ 4.70	≤ 4.70	COc1ccccc1-c1cc([N+](=O)[O-])cc2nonc12 [compound 482, 4-(2-methoxyphenyl)-6-nitro-2,1,3-benzoxadiazole]
≤ 4.70		≤ 4.70	≤ 4.70	O=[N+]([O-])c1cc(-c2cccc3cccnc23)c2nonc2c1 [compound 483, 6-nitro-4-(quinolin-8-yl)-2,1,3-benzoxadiazole]
≤ 4.70		≤ 4.70	≤ 4.70	Cc1ccc(C)c(-c2cc([N+](=O)[O-])cc3nonc23)c1 [compound 484, 4-(2,5-dimethylphenyl)-6-nitro-2,1,3-benzoxadiazole]
